From patent US20020026053A1, “Novel 3-(substituted) -2- indolinones compounds and use thereof as inhibitors of protein kinase activity” (priority 1997, published 2002)
Several values for one entry are separate records, joined by “and”; a condition that tells them apart may be missing. Identical values can stand only once. Like-named read-outs stand apart in the source and are kept apart here.

Target: T1, Met receptor (EGFR/Met chimeric cells, EMR) (Homo sapiens, UniProt P08581)
T1 construct: expressed in transfected cells; the other entry of the earlier key: EGFR (P00533, Epidermal growth factor receptor)
Test: Met Autophosphorylation Assay
Type: biochemical
Procedure, shortened: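 Transiently transfected EGFR/Met chimeric (EMR) cells were lysed in HNTG with 1 mM PMSF. Met was captured on plates coated with goat anti-rabbit IgG, then rabbit anti-Met (C-28), using 90 μg lysate/100 μl for 60 min at room temperature. Phosphotyrosine was read by ELISA.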

T1 sequence (P08581 with tags, fused parts or gaps): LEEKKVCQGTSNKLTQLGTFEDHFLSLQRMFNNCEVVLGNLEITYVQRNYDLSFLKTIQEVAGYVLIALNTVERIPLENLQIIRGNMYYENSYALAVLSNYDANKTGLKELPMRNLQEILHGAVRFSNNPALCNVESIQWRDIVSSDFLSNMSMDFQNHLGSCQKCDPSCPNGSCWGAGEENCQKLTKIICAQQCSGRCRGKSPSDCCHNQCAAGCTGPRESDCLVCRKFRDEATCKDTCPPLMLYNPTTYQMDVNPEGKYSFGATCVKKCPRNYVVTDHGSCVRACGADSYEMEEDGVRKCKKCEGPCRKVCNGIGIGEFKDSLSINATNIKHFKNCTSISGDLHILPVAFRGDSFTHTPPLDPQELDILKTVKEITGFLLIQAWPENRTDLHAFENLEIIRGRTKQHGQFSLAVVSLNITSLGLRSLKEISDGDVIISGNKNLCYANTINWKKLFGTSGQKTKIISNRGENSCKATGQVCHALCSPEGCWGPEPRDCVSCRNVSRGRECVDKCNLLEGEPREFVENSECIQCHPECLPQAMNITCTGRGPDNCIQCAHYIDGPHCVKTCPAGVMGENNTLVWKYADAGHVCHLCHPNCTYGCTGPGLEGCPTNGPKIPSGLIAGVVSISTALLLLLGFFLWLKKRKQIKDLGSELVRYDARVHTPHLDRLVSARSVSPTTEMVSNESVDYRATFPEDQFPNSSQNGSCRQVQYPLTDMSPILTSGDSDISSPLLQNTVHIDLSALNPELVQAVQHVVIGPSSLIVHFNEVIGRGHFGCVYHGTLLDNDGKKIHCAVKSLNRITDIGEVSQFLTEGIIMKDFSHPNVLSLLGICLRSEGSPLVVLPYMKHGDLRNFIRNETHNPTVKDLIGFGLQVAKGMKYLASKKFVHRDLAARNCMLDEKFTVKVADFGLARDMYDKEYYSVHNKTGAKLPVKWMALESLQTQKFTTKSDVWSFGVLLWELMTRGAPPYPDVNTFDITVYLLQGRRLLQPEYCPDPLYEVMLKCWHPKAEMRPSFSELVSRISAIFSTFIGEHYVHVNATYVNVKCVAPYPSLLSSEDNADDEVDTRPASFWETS

| SMILES | Met Kinase % Inhibition (P.130) [%] | Met Kinase % Inhibition (P.130) (protocol P.130) |
| --- | --- | --- |
| COc1cccc(C=C2C(=O)Nc3c(Br)cc(Br)c(C)c32)c1O [10723/H03] | 69.2 |  |
| Cc1c(Br)cc(Br)c2c1C(=Cc1cc(O)c(O)c(Br)c1)C(=O)N2 [10723/H04] | 95.6 |  |
| CC(=O)Oc1ccc(C=C2C(=O)Nc3c(Br)cc(Br)c(C)c32)cc1OC(C)=O [10723/H05] | 64.2 |  |
| Cc1cc(C=C2C(=O)Nc3c(Br)cc(Br)c(C)c32)ccc1O [10723/H06] | 44.9 |  |
| Cc1c(Br)cc(Br)c2c1C(=Cc1ccccc1Br)C(=O)N2 [10723/H07] | 44.9 |  |
| Cc1c(Br)cc(Br)c2c1C(=Cc1ccc(O)cc1O)C(=O)N2 [10723/H08] | 86.2 |  |
| COc1ccc(C=C2C(=O)Nc3c(Br)cc(Br)c(C)c32)c(O)c1 [10723/H09] | 62.1 |  |
| Cc1c(Br)cc(Br)c2c1C(=Cc1cccc(Br)c1)C(=O)N2 [10723/H10] | 46.4 |  |
| Cc1c(Br)cc(Br)c2c1C(=Cc1cc(C(C)(C)C)cc(C(C)(C)C)c1O)C(=O)N2 [10723/H11] | 76.2 |  |
| Cc1c(Br)cc(Br)c2c1C(=Cc1ccc(N(C)C)c3ccccc13)C(=O)N2 [10724/H02] | 51.9 |  |
| Cc1c(Br)cc(Br)c2c1C(=Cc1ccc(O)c([N+](=O)[O-])c1)C(=O)N2 [10724/H03] | 26.1 |  |
| Cc1c(Br)cc(Br)c2c1C(=Cc1ccc([N+](=O)[O-])c(O)c1)C(=O)N2 [10724/H04] | 69.3 |  |
| Cc1c(Br)cc(Br)c2c1C(=Cc1cc3c4c(c1O)CCCN4CCC3)C(=O)N2 [10724/H05] | 68.6 |  |
| Cc1c(Br)cc(Br)c2c1C(=Cc1cc(C(C)C)c(O)c(C(C)C)c1)C(=O)N2 [10724/H06] | 32.8 |  |
| Cc1c(Br)cc(Br)c2c1C(=Cc1cc3ccccc3o1)C(=O)N2 [10724/H07] | 8.6 |  |
| COc1cc(O)c(C=C2C(=O)Nc3c(Br)cc(Br)c(C)c32)c(OC)c1 [10724/H08] | 65.8 |  |
| Cc1c(Br)cc(Br)c2c1C(=Cc1cccn1-c1ccc(Cl)cc1)C(=O)N2 [10724/H09] | 4.2 |  |
| CCc1ccc(C=C2C(=O)Nc3c(Br)cc(Br)c(C)c32)o1 [10724/H10] | 72.2 |  |
| Cc1c(Br)cc(Br)c2c1C(=Cc1sc3scc(C)c3c1C)C(=O)N2 [10724/H11] | 9.8 |  |
| Cc1c(Br)cc(Br)c2c1C(=Cc1sccc1Br)C(=O)N2 [10725/H02] | 15.8 |  |
| COc1ccc(Br)c(C=C2C(=O)Nc3c(Br)cc(Br)c(C)c32)c1O [10725/H03] | 58.3 |  |
| Cc1ccc(C=C2C(=O)Nc3c(Br)cc(Br)c(C)c32)o1 [10725/H04] | 47.1 |  |
| Cc1cc(C=C2C(=O)Nc3c(Br)cc(Br)c(C)c32)[nH]n1 [10725/H05] | 20.8 |  |
| COc1cc(C)cc(O)c1C=C1C(=O)Nc2c(Br)cc(Br)c(C)c21 [10725/H06] | 33.0 |  |

| SMILES | Met Kinase % Inhibition (P.130) [%] | Met Kinase % Inhibition (P.130) (protocol P.130) |
| --- | --- | --- |
| Cc1c(Br)cc(Br)c2c1C(=Cc1ccc(N3CCN(C=O)CC3)cc1)C(=O)N2 [10725/H07] | 14.2 |  |
| Cc1c(Br)cc(Br)c2c1C(=Cc1ccc(N3CCOCC3)cc1)C(=O)N2 [10725/H08] | 5.7 |  |
| COC(=O)Cc1c(Cl)[nH]c(C=C2C(=O)Nc3c(Br)cc(Br)c(C)c32)c1C(=O)OC [10725/H09] | 41.6 |  |
| Cc1c(Br)cc(Br)c2c1C(=Cc1c(Br)cnn1-c1ccc(Cl)cc1)C(=O)N2 [10725/H10] | 21.8 |  |
| Cc1c(Br)cc(Br)c2c1C(=Cc1c[nH]cn1)C(=O)N2 [10725/H11] | 17.8 |  |
| Cc1c(Br)cc(Br)c2c1C(=Cc1ccccc1[N+](=O)[O-])C(=O)N2 [10726/H02] | 66.6 |  |
| CCOC(=O)c1[nH]c(C=C2C(=O)Nc3c(Br)cc(Br)c(C)c32)c(C(=O)OC)c1C [10726/H03] | 44.8 |  |
| Cc1cc(C=C2C(=O)Nc3c(Br)cc(Br)c(C)c32)cc(C(C)(C)C)c1O [10726/H04] | 77.6 |  |
| COc1cccc(C=C2C(=O)Nc3ccc(S(=O)(=O)N4CCOCC4)cc32)c1 [10736/F10] | 65.3 |  |
| O=C1Nc2ccc(S(=O)(=O)N3CCOCC3)cc2C1=Cc1ccccc1Cl [10736/F11] | 25.2 |  |
| O=C1Nc2ccc(CCCl)cc2C1=Cc1ccc(Cl)cc1 [10736/G02] | 48.3 |  |
| O=C1Nc2ccc(CCCl)cc2C1=Cc1ccccc1C(F)(F)F [10736/G03] | 0.6 |  |
| Cc1cccc(C=C2C(=O)Nc3ccc(CCCl)cc32)c1 [10736/G04] | −6.6 |  |
| Cc1ccc(C=C2C(=O)Nc3ccc(CCCl)cc32)cc1 [10736/G05] |  | 0.0% and 1.3% |
| O=C1Nc2ccc(CCCl)cc2C1=Cc1cccc(F)c1 [10736/G07] |  | −0.2% |
| O=C1Nc2ccc(CCCl)cc2C1=Cc1ccccc1F [10736/G08] |  | 6.6% |
| CCc1ccc(C=C2C(=O)Nc3ccc(CCCl)cc32)cc1 [10736/G09] |  | 16.2% |
| COc1cccc(C=C2C(=O)Nc3ccc(CCCl)cc32)c1 [10736/G10] |  | 5.7% |
| O=C1Nc2ccc(CCCl)cc2C1=Cc1ccccc1Cl [10736/G11] |  | 10.3% |
| Cc1c(Br)cc(Br)c2c1C(=Cc1ccc(Cl)cc1)C(=O)N2 [10736/H02] |  | 62.8% |
| Cc1c(Br)cc(Br)c2c1C(=Cc1ccccc1C(F)(F)F)C(=O)N2 [10736/H03] |  | 27.7% |
| Cc1cccc(C=C2C(=O)Nc3c(Br)cc(Br)c(C)c32)c1 [10736/H04] |  | 27.2% |
| Cc1ccc(C=C2C(=O)Nc3c(Br)cc(Br)c(C)c32)cc1 [10736/H05] |  | 21.1% |
| Cc1c(Br)cc(Br)c2c1C(=Cc1cccc(Cl)c1)C(=O)N2 [10736/H06] |  | 27.4% |
